*1 amine or outer side, *2 acyl side, *3 side chain or, on linkers, in order; H or OH if unused. Where a SMILES comes first, the peptide text is derived from it. [ ]: non-standard residue; d: D form. The star is where a group is joined. pNA = O=[N+]([O-])c1ccc(N*)cc1; Suc = O=C(CCC(=O)[*:2])[*:1]
How the values were obtained:
thrombin [1] = target: T1, thrombin (Homo sapiens, UniProt P00734); experiment: Cleavage of pNA substrates by thrombin, kinetic parameters; type: biochemical; design: Human thrombin, bovine chymotrypsin; purchased Sigma Chemical Co. (St. Louis, Mo.); conditions: 37° C.; means of triplicates
Experimental: Measurements of protease activity at 25° C. or 37° C. were performed and analyzed as previously described (Hortin and Trimpe, J. Biol. Chem. 266:6866-6871, 1991) with a Cobas FARA analyzer (Roche Diagnostic Systems, Somerville, N.J.). […] Kinetic parameters were calculated from initial rates of reactions using Lineweaver-Burke plots. […] These reactions were performed in 100 mM tris(hydroxymethyl)-aminomethane pH 7.8 with 10 mm CaCl2. Substrate concentration were determined by absorbance at 342 nm, using an extinction coefficient of 8,260 mol^−1 and several concentrations were confirmed by absorbance measures at 405 or 410 nm after substrate hydrolysis, with extinction coefficient of 9,900 or 8,600 mol^−1, respectively, for the p-nitroaniline product (Lottenberg and Jackson, Biochim. Biophys. Acta 742:558-564, 1983). Molar concentration of chymotrypsin was determined by active site titration with p-nitrophenyl guanidinobenzoate and thrombin concentrations by titration with highly purified hirudin.

trypsin = target: T2, trypsin (Bos taurus, UniProt P00760); experiment: Inhibition of substrate cleavage by α2-macroglobulin, trypsin; type: biochemical, bovine; conditions: excess inhibitor
T2 construct: purchased Worthington Biochemicals Co. (trypsin); Calbiochem (α2-macroglobulin)
T2 sequence (P00760 24-246): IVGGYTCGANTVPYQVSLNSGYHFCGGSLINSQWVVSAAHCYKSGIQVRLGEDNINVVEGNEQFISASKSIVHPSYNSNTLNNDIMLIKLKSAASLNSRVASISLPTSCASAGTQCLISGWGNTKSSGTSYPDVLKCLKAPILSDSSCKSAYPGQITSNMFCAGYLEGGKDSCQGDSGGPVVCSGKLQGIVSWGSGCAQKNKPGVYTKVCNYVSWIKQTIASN
Experimental: (§2) Measurements of protease activity at 25° C. or 37° C. were performed and analyzed as previously described (Hortin and Trimpe, J. Biol. Chem. 266:6866-6871, 1991) with a Cobas FARA analyzer (Roche Diagnostic Systems, Somerville, N.J.). […] Kinetic parameters were calculated from initial rates of reactions using Lineweaver-Burke plots. […] These reactions were performed in 100 mM tris(hydroxymethyl)-aminomethane pH 7.8 with 10 mm CaCl2. Substrate concentration were determined by absorbance at 342 nm, using an extinction coefficient of 8,260 mol^−1 and several concentrations were confirmed by absorbance measures at 405 or 410 nm after substrate hydrolysis, with extinction coefficient of 9,900 or 8,600 mol^−1, respectively, for the p-nitroaniline product (Lottenberg and Jackson, Biochim. Biophys. Acta 742:558-564, 1983). […] Trypsin concentration was estimated based on weight, assuming 100% activity. For studies of trypsin and thrombin, α2-macro-globulin was pretreated with a 200-fold molar excess of p-amidinophenylmethyl-sulfonylfluoride in order to inactivate any protease trapped within the inhibitor and left at 4° C. for 72 hours before use to allow complete decay of the sulfonylfluoride.

thrombin [2] = target: T1, thrombin; experiment: Inhibition of substrate cleavage by α2-macroglobulin, thrombin; type: biochemical; design: Human thrombin, bovine chymotrypsin; purchased Sigma Chemical Co. (thrombin); Calbiochem (α2-macroglobulin); conditions: excess inhibitor
Experimental: as §2

salivary amylase [3] = target: T3, salivary amylase (Homo sapiens, UniProt P0DUB6); experiment: Amylase assay, Km determination, salivary amylase; type: biochemical; conditions: 37° C.; HEPES buffer pH 7.15
T3 construct: purchased Sigma (St. Louis, Mo.)
T3 sequence (P0DUB6 16-511): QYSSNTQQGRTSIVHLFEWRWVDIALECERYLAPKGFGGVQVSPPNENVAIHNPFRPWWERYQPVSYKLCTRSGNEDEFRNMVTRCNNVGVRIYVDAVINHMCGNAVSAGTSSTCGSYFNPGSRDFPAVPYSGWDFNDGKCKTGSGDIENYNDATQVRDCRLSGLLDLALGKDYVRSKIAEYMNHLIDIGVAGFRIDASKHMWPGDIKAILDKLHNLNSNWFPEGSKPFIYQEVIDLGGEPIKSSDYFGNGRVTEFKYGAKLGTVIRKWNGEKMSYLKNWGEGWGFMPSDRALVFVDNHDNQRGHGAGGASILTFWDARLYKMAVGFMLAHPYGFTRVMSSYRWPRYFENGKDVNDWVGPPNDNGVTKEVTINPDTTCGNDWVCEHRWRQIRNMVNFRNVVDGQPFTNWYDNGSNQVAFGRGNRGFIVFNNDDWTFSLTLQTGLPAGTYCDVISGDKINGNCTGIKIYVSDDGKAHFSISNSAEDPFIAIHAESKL
Experimental: (§1) Amylase assays using oligosaccharide substrates were automated using a Cobas Fara analyzer (Roche, Basel, Switzerland). Unless indicated, assay temperature was 37° C., and absorbance changes were measured at 405 nm every minute over a 20 minute period. Assay buffer was either 52.5 mmol/L 4-(2-hydroxyethyl)-1-piperazine-ethanesulfonic acid (HEPES) buffer, pH 7.15, 87 mmol/L sodium chloride, 12.6 mmol/L magnesium chloride, 0.075 mmol/L calcium chloride (HEPES buffer) or 50 mmol/L MES, pH 6.0, 350 mmol/L sodium chloride, 6 mmol/L calcium acetate, 900 mmol/L KSCN (MES buffer). Amylases were diluted into assay buffer containing 1 mg/mL rabbit albumin. Final reaction volumes were 200 μL and consisted of 3 solutions, R1, R2, and R3. […] Depending upon the assay, R2 and R3 contained either amylase or substrate. R1 and R2 solutions were mixed for 10 seconds prior to the addition of R3. For immunoinhibition studies, antibodies were preincubated with amylase (R2) for 30 minutes at room temperature prior to the addition of substrate (R3). Unless indicated, final concentrations of MABs were 10 mg/L. Reaction blanks were determined by measuring the absorbance of substrate or enzyme alone at 405 nm. When EtG7pNP or mPEG-EtG7pNP were used as substrates, α-glucosidase was included in the blank measurement. Differences between the test samples and reagent blanks were determined. Activity of stock solutions of amylase was based on activity measured with a Hitachi 917 analyzer using a Roche kit (Cat. No 1876473) (Indianapolis, Ind.) which uses EtG7pNP as the substrate. For Km determinations, 4 or 5 different substrate concentrations (0.05 mmol/L to 6 mmol/L) with salivary (4-20 U/L) or pancreatic (4-40 U/L) amylase were used.

salivary amylase [4] = target: T3, salivary amylase; experiment: Immunoinhibition by MABs, salivary amylase, oligosaccharide substrates; type: biochemical; conditions: salivary isoenzyme, 20 U/I (G5, G7 substrates) or 600 U/I (G3 substrates), 100% = no MAB
Experimental: as §1
When both MABs were used, MAB 88E8 concentrations were varied in the presence of 10 mg/L MAB 66C7. At an antibody concentration of 10 mg/L, MAB 88E8 inhibits 98% of salivary amylase activity in HEPES buffer and 34% of salivary amylase activity in MES buffer. MAB 66C7 increases salivary amylase activity in HEPES buffer and has no effect on salivary amylase activity in MES buffer. Using a mixture of MABs 88E8 and 66C7 at concentrations of […], >99% of salivary amylase activity is inhibited in HEPES buffer and 73% of salivary amylase activity is inhibited in MES buffer. When the pH of the MES buffer was increased from 6.0 to 6.5 and the concentration of KSCN was decreased from 900 mmol/L to 300 mmol/L, >97% of salivary amylase activity was inhibited by MAB 88E8.

pancreatic amylase [5] = target: T4, pancreatic amylase (Homo sapiens, UniProt P04746); experiment: Immunoinhibition by MABs, pancreatic amylase, oligosaccharide substrates; type: biochemical; conditions: pancreatic isoenzyme, 40 U/I (G5, G7 substrates) or 400 U/I (G3 substrates), 100% = no MAB
T4 construct: purchased Scripps Laboratories (San Diego, Calif.)
T4 sequence (P04746 16-511): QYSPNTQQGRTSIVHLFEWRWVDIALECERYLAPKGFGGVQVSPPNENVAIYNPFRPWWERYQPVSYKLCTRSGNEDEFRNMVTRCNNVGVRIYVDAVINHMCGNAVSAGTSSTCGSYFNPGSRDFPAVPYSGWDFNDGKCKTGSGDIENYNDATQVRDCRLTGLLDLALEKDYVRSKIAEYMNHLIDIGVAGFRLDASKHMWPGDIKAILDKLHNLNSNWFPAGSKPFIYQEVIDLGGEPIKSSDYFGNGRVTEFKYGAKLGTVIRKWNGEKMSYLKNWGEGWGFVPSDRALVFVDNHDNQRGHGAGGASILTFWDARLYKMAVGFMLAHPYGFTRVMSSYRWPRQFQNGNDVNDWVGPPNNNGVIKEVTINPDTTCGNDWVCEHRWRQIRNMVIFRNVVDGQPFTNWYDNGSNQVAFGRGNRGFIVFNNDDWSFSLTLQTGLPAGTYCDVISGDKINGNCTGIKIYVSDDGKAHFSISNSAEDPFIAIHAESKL
Experimental: as §1

pancreatic amylase [6] = target: T4, pancreatic amylase; experiment: Amylase assay, Km determination, pancreatic amylase; type: biochemical; conditions: 37° C.; HEPES buffer pH 7.15
Experimental: as §1, with “Assay buffer was either 52.5 mmol/L 4-(2-hydroxyethyl)-1-piperazine-ethanesulfonic acid (HEPES) buffer, pH 7.15, 87 mmol/L sodium chloride, 12.6 mmol/L magnesium chloride, 0.075 mmol/L calcium chloride (HEPES buffer) or 50 mmol/L MES, pH 6.0, 350 mmol/L sodium chloride, 6 mmol/L calcium acetate, 900 mmol/L KSCN (MES buffer).” left out

chymotrypsin = chymotrypsin (Bos taurus, UniProt P00766); experiment: Inhibition of substrate cleavage by α2-macroglobulin, chymotrypsin
Experimental: Measurements of protease activity at 25° C. or 37° C. were performed and analyzed as previously described (Hortin and Trimpe, J. Biol. Chem. 266:6866-6871, 1991) with a Cobas FARA analyzer (Roche Diagnostic Systems, Somerville, N.J.). […] Kinetic parameters were calculated from initial rates of reactions using Lineweaver-Burke plots. […] These reactions were performed in 100 mM tris(hydroxymethyl)-aminomethane pH 7.8 with 10 mm CaCl2. Substrate concentration were determined by absorbance at 342 nm, using an extinction coefficient of 8,260 mol^−1 and several concentrations were confirmed by absorbance measures at 405 or 410 nm after substrate hydrolysis, with extinction coefficient of 9,900 or 8,600 mol^−1, respectively, for the p-nitroaniline product (Lottenberg and Jackson, Biochim. Biophys. Acta 742:558-564, 1983). Molar concentration of chymotrypsin was determined by active site titration with p-nitrophenyl guanidinobenzoate and thrombin concentrations by titration with highly purified hirudin. Trypsin concentration was estimated based on weight, assuming 100% activity. For studies of trypsin and thrombin, α2-macro-globulin was pretreated with a 200-fold molar excess of p-amidinophenylmethyl-sulfonylfluoride in order to inactivate any protease trapped within the inhibitor and left at 4° C. for 72 hours before use to allow complete decay of the sulfonylfluoride.

[7] = tested on: C[C@H](NC(=O)CCC(=O)O)C(=O)N[C@@H](C)C(=O)N1CCC[C@H]1C(=O)N[C@@H](Cc1ccccc1)C(=O)Nc1ccc([N+](=O)[O-])cc1; experiment: purified protein, by the assay type; conditions: other: 37° C., means of triplicates, pH 7.8
20S proteasomes = target: T5, 20S proteasomes (Methanosarcina thermophila, UniProt Q9P992); experiment: Substrate cleavage by 20S proteasomes; type: biochemical
T5 construct: purchased Calbiochem (La Jolla, Calif.); host or cells: Escherichia coli
T5 sequence (Q9P992 10-210): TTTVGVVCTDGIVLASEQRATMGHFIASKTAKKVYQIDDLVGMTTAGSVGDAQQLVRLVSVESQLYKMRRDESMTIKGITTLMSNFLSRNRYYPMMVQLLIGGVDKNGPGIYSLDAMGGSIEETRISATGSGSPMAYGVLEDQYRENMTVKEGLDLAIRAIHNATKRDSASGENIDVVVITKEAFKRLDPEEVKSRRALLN
T5 sequence (Q59565 1-247 partner): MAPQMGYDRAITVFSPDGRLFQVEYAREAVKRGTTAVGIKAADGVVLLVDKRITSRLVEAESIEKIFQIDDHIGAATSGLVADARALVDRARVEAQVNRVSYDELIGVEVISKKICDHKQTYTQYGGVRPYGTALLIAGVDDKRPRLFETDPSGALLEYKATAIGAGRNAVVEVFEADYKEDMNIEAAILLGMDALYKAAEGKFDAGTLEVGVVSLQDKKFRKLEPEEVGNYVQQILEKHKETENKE
Experimental: Enzyme assays. Assays of proteasome activity were performed at 37° C. unless otherwise indicated. […] Reactions were in a buffer consisting of 100 mM Tris(hydroxymethyl)aminomethane, pH 7.2 with 1 mM dithiothreitol.

CC(=O)N[C@H](Cc1ccccc1)C(=O)N1CCCC[C@H]1C(=O)N[C@@H](CCCNC(=N)N)C(=O)Nc1ccc([N+](=O)[O-])cc1 [Ac-D-Phe-Pip-Arg-pNA]
Km (thrombin [1]): 23 µM
kcat (thrombin [1]): 3.0 S^−1

CC[C@@H](C)[C@@H](N)C(=O)N1CCC[C@H]1C(=O)N[C@@H](CCCNC(=N)N)C(=O)Nc1ccc([N+](=O)[O-])cc1 [D-Ile-Pro-Arg-pNA] (H-[dI]-Pro-Arg-pNA)
Km (thrombin [1]): 12 µM
kcat (thrombin [1]): 105 S^−1
Inhibition of trypsin activity by excess α2-macroglobulin (trypsin): 40-50%

N=C(N)NCCC[C@H](NC(=O)[C@@H]1CCCCN1C(=O)[C@H](N)Cc1ccccc1)C(=O)Nc1ccc([N+](=O)[O-])cc1 [D-Phe-Pip-Arg-pNA]
Km (thrombin [1]): 6.1 µM
kcat (thrombin [1]): 65 S^−1
Inhibition of thrombin activity by excess α2-macroglobulin (thrombin [2]): 40-50%

O=[N+]([O-])c1ccc(OC2OC(CO)C(OC3OC(CO)C(OC4OC(CO)C(OC5OC(CO)C(OC6OC(CO)C(O)C(O)C6O)C(O)C5O)C(O)C4O)C(O)C3O)C(O)C2O)cc1 [Substrate G5pNP, p-nitrophenyl-α-D-maltopentaoside]
Km (salivary amylase [3]): 400 µM
% activity with MAB 88E8 + 66C7 (salivary amylase [4]): 2%
% activity with MAB 66C7 (salivary amylase [4]; MAB 10 mg/L): 105%
% activity with MAB 88E8 (salivary amylase [4]; MAB 10 mg/L): 6%
% activity with MAB 88E8 + 66C7 (pancreatic amylase [5]): 95%
% activity with MAB 66C7 (pancreatic amylase [5]; MAB 10 mg/L): 103%
% activity with MAB 88E8 (pancreatic amylase [5]; MAB 10 mg/L): 101%
Km (pancreatic amylase [6]): 280 µM

C[C@H](NC(=O)CCC(=O)O)C(=O)N[C@@H](C)C(=O)N1CCC[C@H]1C(=O)N[C@@H](Cc1ccccc1)C(=O)Nc1ccc([N+](=O)[O-])cc1 [Suc-Ala-Ala-Pro-Phe-pNA, succinyl-Ala-Ala-Pro-Phe-pNA] (Suc-AAPF-pNA)
Maximal inhibition of chymotrypsin activity by excess α2-macroglobulin (chymotrypsin; increasing α2-macroglobulin added to a fixed amount of chymotrypsin): about 60%

bovine chymotrypsin (Bos taurus)
Km [7]: 40 µM
kcat [7]: 120 s⁻¹
kcat/Km [7]: 3e+06 M⁻¹ s⁻¹

succinyl-Ala-Ala-Phe-p-nitroanilide [Suc-Ala-Ala-Phe-pNA]
Rate of substrate cleavage by 20s proteasomes (20S proteasomes; each substrate at 1 mM, 37° C., mean ± SD): 0.0061 ± 0.0001 ΔA405/10 min
Rate of cleavage greater than Ala-Ala-Phe-pNA (20S proteasomes; substrate 0.5-3 mM, 30-50° C.): 50-100%
Rate Plus α2-M (chymotrypsin; chymotrypsin 2.5 μg/ml, 0.5 mM substrate, after incubation with excess α2-macroglobulin (250 μ/ml), means ± SD): 12.3 ± 0.1 µmol/L/min
Rate Minus α2-M (chymotrypsin; chymotrypsin 2.5 μg/ml, 0.5 mM substrate, before incubation with α2-macroglobulin, means ± SD): 21.7 ± 0.2 µmol/L/min
Inhibition of substrate cleavage by α2-macroglobulin (chymotrypsin; chymotrypsin 2.5 μg/ml, 0.5 mM substrate, excess α2-macroglobulin): 43%
